Read-outs that look alike come from different tables or passages of the source.
Key:
α2 = settings: described in EP-194984; cited from earlier work
human aromatase = molecular target: T1, human aromatase (Homo sapiens, UniProt P11511); assay: In vitro inhibition of human placental aromatase (3H2O release from 1,2[3H]-androstene-3,17-dione); format: biochemical; settings: for IC10: 40 min, read-out: AROMATASE IC-10; for IC90: read-out: AROMATASE IC-90
T1 construct: The enzyme preparation was used without further purification; from tissue; host or cells: human placenta, microsomal fraction (100000×g precipitate)
T1 sequence (P11511 1-503): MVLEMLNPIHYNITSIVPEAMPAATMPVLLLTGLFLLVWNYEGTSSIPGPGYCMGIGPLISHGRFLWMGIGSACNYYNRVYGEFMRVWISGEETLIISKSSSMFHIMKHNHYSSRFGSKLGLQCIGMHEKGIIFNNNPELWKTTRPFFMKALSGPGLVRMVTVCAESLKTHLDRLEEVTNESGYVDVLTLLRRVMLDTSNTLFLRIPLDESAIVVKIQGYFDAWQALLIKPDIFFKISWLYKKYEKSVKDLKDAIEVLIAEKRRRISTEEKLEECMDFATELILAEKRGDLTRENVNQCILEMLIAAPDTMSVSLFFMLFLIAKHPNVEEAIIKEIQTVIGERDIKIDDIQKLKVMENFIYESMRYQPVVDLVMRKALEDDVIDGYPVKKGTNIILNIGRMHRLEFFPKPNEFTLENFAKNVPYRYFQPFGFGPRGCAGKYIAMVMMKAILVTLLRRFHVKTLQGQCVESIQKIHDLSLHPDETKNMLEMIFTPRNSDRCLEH
Protocol: Human aromatase enzyme was used. The enzyme was prepared from human placenta, which is rich in the enzyme. Microsomal fraction (100000×g precipitate) was prepared by centrifugation. The enzyme preparation was used without further purification. Test compounds listed in Table 1 were added with 100000 dpm of 1,2[^3 H]-androstene-3,17-dione and NADPH generating system. The concentrations of the test compounds were 0,001; 0,01; 0,1 and 1,0 mM. The incubation was carried out at 37° C. for 40 min. Aromatization of 1,2[^3 H]-androstene-3,17-dione results in the production of ^3 H2 O. The tritiated water and the tritiated substrate are easily separated by a Sep-Pak® minicolumn, which absorbs the steroid but allows free water elution. Radioactivity was counted by a liquid scintillation counter. Aromatase inhibition was evaluated by comparing the ^3 H2 O-radioactivity of inhibitor treated samples to controls containing no inhibitor. IC-10, IC-50 and IC-90 values were calculated as concentrations which inhibited the enzyme activity 10%, 50% and 90%, respectively.

desmolase = assay: Cholesterol side-chain cleavage (desmolase, P450 scc) inhibition; settings: read-out: DESMOLASE IC-50; Table 2; 30 min at 37° C.; human placenta or bovine adrenals as enzyme source, table title says human

SMILES	IC10 (human aromatase)	IC50 (human aromatase; read-out: AROMATASE IC-50)	IC90 (human aromatase)	other results
c1ccc(C(Cc2c[nH]cn2)c2ccccc2)cc1 [4-(2,2-diphenylethyl)-1H-imidazole]	–	–	–	α2-blocking properties (α2): selective α2 -blocking properties
Cc1cccc(C)c1CCC(O)(CCc1c[nH]cn1)CCc1c(C)cccc1C [Compound 1, 4-[5-(2,6-dimethylphenyl)-3-hydroxy-3-(2,6-dimethylphenylethyl)pentyl]-1H-imidazole]	20 µM	1000 µM	> 1000 µM	–
OC(CCc1c[nH]cn1)(c1ccc(Cl)cc1)c1ccc(Cl)cc1 [Compound 2, 4-[3,3-bis(4-chlorophenyl)-3-hydroxypropyl]-1H-imidazole]	4 µM	60 µM	1000 µM	–
OC(CCc1c[nH]cn1)(c1ccccc1)c1ccccc1 [Compound 3, 4-(3,3-diphenyl-3-hydroxypropyl)-1H-imidazole]	4 µM	70 µM	1000 µM	–
c1ccc(Cn2cncc2CCC(c2ccccc2)c2ccccc2)cc1 [Compound 10, 1-benzyl-5-(3,3-diphenylpropyl)-1H-imidazole]	~0.6 µM	4 µM	100 µM	–
Cc1cccc(C(CCc2c[nH]cn2)c2cccc(C)c2)c1 [Compound 11, 4-[3,3-bis(3-methylphenyl)propyl]-1H-imidazole]	–	–	–	IC50 (desmolase): 29 µM
COc1cccc(C(CCc2cncn2Cc2ccccc2)c2cccc(OC)c2)c1 [Compound 15, 1-benzyl-5-[3,3-bis(3-methoxyphenyl)propyl]-1H-imidazole]	–	4 µM	–	–
COc1cccc(C(=CCc2cncn2Cc2ccccc2)c2cccc(OC)c2)c1 [Compound 16]	–	–	–	IC50 (human aromatase): 14 µM
Cc1cc(C)cc(C(CCc2c[nH]cn2)c2cc(C)cc(C)c2)c1 [Compound 17, 4-[3,3-bis(3,5-dimethylphenyl)propyl]-1H-imidazole]	–	130 µM	–	–
Cc1ccc(C(CCc2c[nH]cn2)c2ccc(C)cc2)cc1 [Compound 18, 4-[3,3-bis(4-methylphenyl)propyl]-1H-imidazole]	–	–	–	IC50 (desmolase): 48 µM
Fc1cccc(C(CCc2c[nH]cn2)c2cccc(F)c2)c1 [Compound 19, 4-[3,3-bis(3-fluorophenyl)propyl]-1H-imidazole]	–	–	–	IC50 (desmolase): 20 µM
C(Cc1cncn1Cc1ccccc1)=C(c1ccccc1)c1ccccc1 [Compound 20]	–	–	–	IC50 (human aromatase): 50 µM
c1ccc(CCC(CCc2cncn2Cc2ccccc2)c2ccccc2)cc1 (centres unmarked) [Compound 21, 1-benzyl-5-(3,5-diphenylpentyl)-1H-imidazole]	–	17 µM	–	–
COc1ccc(C(CCc2c[nH]cn2)c2ccc(OC)cc2)cc1 [Compound 22, 4-[3,3-bis(4-methoxyphenyl)propyl]-1H-imidazole]	–	–	–	IC50 (desmolase): 26 µM
Cc1ccc(C(CCc2c[nH]cn2)c2ccccc2)cc1 (centres unmarked) [Compound 24, 4-[3-(4-methylphenyl)-3-phenylpropyl]-1H-imidazole]	–	–	–	IC50 (desmolase): 50 µM
Fc1ccc(C(CCc2c[nH]cn2)c2ccccc2)cc1 (centres unmarked) [Compound 26, 4-[3-(4-fluorophenyl)-3-phenylpropyl]-1H-imidazole]	–	–	–	IC50 (desmolase): 440 µM
Fc1ccc(C(CCc2c[nH]cn2)c2ccc(F)cc2)cc1 [Compound 27, 4-[3,3-bis(4-fluorophenyl)propyl]-1H-imidazole]	–	–	–	IC50 (desmolase): 30 µM
C(=CC(c1ccccc1)c1ccccc1)c1cncn1Cc1ccccc1 [Compound 28, 1-benzyl-5-(3,3-diphenylpropen-1-yl)-1H-imidazole]	–	14 µM	–	–

Second part, led by results:

IC10 (human aromatase)	IC50 (human aromatase; read-out: AROMATASE IC-50)	IC90 (human aromatase)	SMILES	other results
< 1 µM	–	100 µM	C(Cc1c[nH]cn1)=C(c1ccccc1)c1ccccc1 [Compound 4]	IC50 (human aromatase): 6 µM
15 µM	–	> 1000 µM	Cc1ccccc1C(O)(CCc1c[nH]cn1)c1ccccc1C [Compound 6, 4-[3,3-bis(2-methylphenyl)-3-hydroxpropyl]-1H-imidazole]	IC50 (human aromatase): 300 µM
2 µM	–	600 µM	Clc1ccc(C(=CCc2c[nH]cn2)c2ccc(Cl)cc2)cc1 [Compound 7]	IC50 (human aromatase): 35 µM
1.5 µM	–	> 1000 µM	Cc1ccccc1C(=CCc1c[nH]cn1)c1ccccc1C [Compound 8]	IC50 (human aromatase): 80 µM
1 µM	–	1000 µM	Cc1cccc(C(=CCc2c[nH]cn2)c2cccc(C)c2)c1 [Compound 12]	IC50 (human aromatase): 62 µM
–	3 µM	–	COc1cccc(C(CCc2c[nH]cn2)c2cccc(OC)c2)c1 [Compound 13, 4-[3,3-bis(3-methoxyphenyl)propyl]-1H-imidazole]	–
–	44 µM	–	Cc1cccc(C(CCc2c[nH]cn2)c2cccc(C)c2C)c1C [Compound 14, 4-[3,3-bis(2,3-dimethylphenyl)propyl]-1H-imidazole]	–
–	8.6 µM	–	COc1ccccc1C(CCc1c[nH]cn1)c1ccccc1OC [Compound 25, 4-[3,3-bis(2-methoxyphenyl)propyl]-1H-imidazole]	–
